Source: the NIST ThermoML archive (doi:10.1016/j.jct.2012.08.021)
± gives the expanded uncertainty stated by the source.

Columns and labels:
[1] = 101 kPa, Liquid, Vibrating tube method
[2] = xn = mol fraction of the nth substance listed; conditions: 101 kPa, Liquid, Vibrating tube method, x2 = 0

Row | SMILES | mass density ([1]; 303.15 K) | mass density ([1]; 323.15 K) | mass density ([1]; 343.14 K) | mass density ([1]; 353.14 K) | mass density ([1]; 363.15 K) | mass density ([2]; 293.14 K) | mass density ([2]; 303.15 K) | mass density ([2]; 313.14 K) | mass density ([2]; 323.14 K) | mass density ([2]; 333.15 K) | mass density ([2]; 343.14 K) | mass density ([2]; 353.14 K) | mass density ([2]; 363.15 K) | also measured
1 | OCCNCCO [diethanolamine] | 1091.17 ± 0.3 kg/m3 | 1077.88 ± 0.29 kg/m3 | 1064.25 ± 0.28 kg/m3 | 1057.31 ± 0.28 kg/m3 | 1050.24 ± 0.27 kg/m3 | – | – | – | – | – | – | – | – | mass density ([1]; 293.15 K): 1097.61 ± 0.31 kg/m3; mass density ([1]; 313.15 K): 1084.6 ± 0.3 kg/m3; mass density ([1]; 333.14 K): 1071.11 ± 0.29 kg/m3
2 | CN(CCO)CCO [N-methyldiethanolamine] | 1033.02 ± 0.91 kg/m3 | 1017.74 ± 0.87 kg/m3 | – | 994.404 ± 0.83 kg/m3 | 986.471 ± 0.82 kg/m3 | – | – | – | – | – | – | – | – | mass density ([1]; 293.15 K): 1040.6 ± 0.92 kg/m3; mass density ([1]; 313.15 K): 1025.4 ± 0.89 kg/m3; mass density ([1]; 333.15 K): 1010.03 ± 0.86 kg/m3; mass density ([1]; 343.15 K): 1002.25 ± 0.84 kg/m3
3 | C[S+](C)[O-] [dimethyl sulfoxide] + CN(CCO)CCO | – | – | – | – | – | 1100.87 ± 0.31 kg/m3 | 1090.81 ± 0.3 kg/m3 | 1080.77 ± 0.29 kg/m3 | 1070.73 ± 0.29 kg/m3 | 1060.68 ± 0.28 kg/m3 | 1050.62 ± 0.27 kg/m3 | 1040.54 ± 0.26 kg/m3 | 1030.43 ± 0.25 kg/m3 | –
4 | C[S+](C)[O-] [dimethyl sulfoxide] + OCCNCCO | – | – | – | – | – | 1100.87 ± 0.31 kg/m3 | 1090.81 ± 0.3 kg/m3 | 1080.77 ± 0.29 kg/m3 | 1070.73 ± 0.29 kg/m3 | 1060.68 ± 0.28 kg/m3 | 1050.62 ± 0.27 kg/m3 | 1040.54 ± 0.26 kg/m3 | 1030.43 ± 0.25 kg/m3 | –
5 | C[S+](C)[O-] [dimethyl sulfoxide] | 1090.81 ± 0.3 kg/m3 | – | 1050.62 ± 0.27 kg/m3 | 1040.54 ± 0.26 kg/m3 | 1030.43 ± 0.25 kg/m3 | – | – | – | – | – | – | – | – | mass density ([1]; 293.14 K): 1100.87 ± 0.31 kg/m3; mass density ([1]; 313.14 K): 1080.77 ± 0.29 kg/m3; mass density ([1]; 323.14 K): 1070.73 ± 0.29 kg/m3; mass density ([1]; 333.15 K): 1060.68 ± 0.28 kg/m3
6 | NCCO [2-aminoethan-1-ol] | – | 992.384 ± 0.23 kg/m3 | 976.141 ± 0.23 kg/m3 | 967.893 ± 0.23 kg/m3 | 959.536 ± 0.23 kg/m3 | – | – | – | – | – | – | – | – | mass density ([1]; 293.16 K): 1016.34 ± 0.24 kg/m3; mass density ([1]; 303.14 K): 1008.4 ± 0.24 kg/m3; mass density ([1]; 313.14 K): 1000.41 ± 0.23 kg/m3; mass density ([1]; 333.14 K): 984.302 ± 0.23 kg/m3
7 | C[S+](C)[O-] [dimethyl sulfoxide] + NCCO | – | – | – | – | – | 1100.87 ± 0.31 kg/m3 | 1090.81 ± 0.3 kg/m3 | 1080.77 ± 0.29 kg/m3 | 1070.73 ± 0.29 kg/m3 | 1060.68 ± 0.28 kg/m3 | 1050.62 ± 0.27 kg/m3 | 1040.54 ± 0.26 kg/m3 | 1030.43 ± 0.25 kg/m3 | –
